[invAb] = inverted abasic unit; d = 2'-deoxy (DNA); m = 2'-O-methyl; r = 2'-OH (RNA); f = 2'-fluoro
Assays:
[1] = test system: Bach1 mRNA; assay: Initial screen: Bach1 mRNA knock-down in human A549 cells (96-well transfection, quantitative RT-PCR); type: cell-based; settings: Bach1 mRNA, 10 nM siNA, human A549 cells, n = 2, mean ± S.D., normalized to GAPDH and non-targeting control, 24 hrs post-transfection
Method: (§1) All cells were obtained from ATCC (Manassas, Va.) unless otherwise indicated. Cells were grown and transfected under standard conditions, which are detailed below for each cell line.
(§2) Cells were plated in all wells of a tissue-culture treated, 96-well plate at a final count of 5000 cells/well in 100 μL of the appropriate culture media. The cells were cultured for 24 hours after plating at 37° C. in the presence of 5% CO2.
(§3) After 24 hours, complexes containing siNA and RNAiMax were created as follows: A solution of RNAiMax diluted 33-fold in OPTI-MEM was prepared. […] After incubation of RNAiMax/OPTI-MEM solution at room temperature for 5 min, an equal volume of the siNA solution and the RNAiMax solution were added together for each of the siNAs.
(§4) This solution was incubated at room temperature for 20 minutes. After incubation, 20 uL of the solution was added to each of the relevant wells. The final concentration of siNA in each well was 10 nM and the final volume of RNAiMax in each well was 0.3 ul. […]
(§5) Briefly, a 60 uL (1 plate) or 110 uL (2 plates) of the Lysis Solution with DNase I was dispensed into each well of the Lysis Buffer Plate (twin.tec full skirt plate). The lysis buffer and stop plates were stored at 4° C. until the cells were washed.
(§6) The plate was spun at 1100 rpm for 5 minutes. The culture medium was aspirated and discarded from the wells of the culture plate. The lysis was performed automatically using a BioMek FX instrument and method. After the Biomek method was completed, the lysis plate was incubated for 2 min at room temperature. The lysis plate can be stored for 2 hours at 4° C., or at −20° C. or −80° C. for two months.
(§7) Each well of the reverse transcription plate required 10 uL of 2× reverse transcriptase Buffer, 1 uL of 20× reverse transcription enzyme and 2 uL of nuclease-free water. The reverse transcription master mix was prepared by mixing 2× reverse transcription buffer, 20× reverse transcription enzyme mix, and nuclease-free water. 13 uL of the reverse transcription master mix was dispensed into each well of the reverse transcription plate (semi-skirted). A separate reverse transcription plate was prepared for each cell plate. The plate was loaded onto a Biomek NX or Biomek FX Dual −96 and the Biomek method was run. The program is programmed to automatically added 7 uL of lysate from the cell lysis procedure described above into each well of the reverse transcription plate. The plate is sealed and spun on a centrifuge (1000 rpm for 30 seconds) to settle the contents to the bottom of the reverse transcription plate. The plate is placed in a thermocycler at 37° C. for 60 min, 95° C. for 5 min, and 4° C. until the plate is removed from the thermocycler. Upon removal, if not used immediately, the plate was frozen at −20° C.
(§8) A series of probes and primers were used to detect the various mRNA transcripts of the genes of Bach1, HMOX-1, and GAPDH in mouse and human cell lines. The assays were performed on an ABI 7900 instrument, according to the manufacturer's instructions. […] The PCR reactions were carried out at 50° C. for 2 min, 95° C. for 20 min followed by 40 cycles at 95° C. for 15 secs and 60° C. for 1 min
(§9) Within each experiment, the […] was set in the exponential phase of the amplification curve, and based on the intersection point of the baselines with the amplification curve, a Ct value was assigned by the instrument.
(§10) The expression level of the gene of interest and % knock-down was calculated using Comparative Ct method:
(§11) ΔCt=ΔCt(Target siRNA)−ΔCt(NTC)
(§12) Relative expression level=2^−ΔΔCt
(§13) The non-targeting control siNA was, unless otherwise indicated, chosen as the value against which to calculate the % knock-down, because it is the most relevant control.

[2] = test system: Bach1 mRNA; assay: Initial screen: Bach1 mRNA knock-down in mouse NIH 3T3 cells (96-well transfection, quantitative RT-PCR); type: cell-based; settings: mouse NIH3T3 cells, n = 2, 24 hrs post-transfection, protocol 10 nM siNA
Method: as §1, §2, §3, §4, §5, §6, §7, §8, §9, §10, §11, §12, §13

Row | Substance | % KD [1] | % KD [2]
1 | 29974-DC: Bach1 siNA duplex, target site 1739 (mouse); sense B GAGGuGAAGcuGccAuucA TTB (SEQ 97); antisense UGAAuGGcAGcuucAccucUU (SEQ 98) (sense GAGGUGAAGCUGCCAUUCATT; antisense UGAAUGGCAGCUUCACCUCUU; sense: DNA at AGT, 2'-fluoro at CU, [invAb] at 5' end, 3' end, backbone not given here; antisense: sugars from the 5' end rrrmfmmfmmffffmffffmm, backbone not given here) | −4.3 ± 15.5% | −12 ± 6.9%
2 | 29972-DC: Bach1 siNA duplex, target site 1262 (mouse); sense B GAuuuAuAucuGAAGucuA TTB (SEQ 93); antisense UAGAcuucAGAuAuAAAucUU (SEQ 94) (sense GAUUUAUAUCUGAAGUCUATT; antisense UAGACUUCAGAUAUAAAUCUU; sense: DNA at AGT, 2'-fluoro at CU, [invAb] at 5' end, 3' end, backbone not given here; antisense: sugars from the 5' end rrrmffffmmmfmfmmmffmm, backbone not given here) | −3.3 ± 27.4% | 71.7 ± 5.5%
3 | 29985-DC: Bach1 siNA duplex, target site 1312; sense B AGGcuucuGGAGuGAcAuu TTB (SEQ 119); antisense AAUGucAcuccAGAAGccuUU (SEQ 120) (sense AGGCUUCUGGAGUGACAUUTT; antisense AAUGUCACUCCAGAAGCCUUU; sense: sugars from the 5' end dddfffffddddfrdfdffdd, [invAb] at 5' end, 3' end, backbone not given here; antisense: sugars from the 5' end rrrmffmffffmmmmmfffmm, backbone not given here) | 18.6 ± 6.5% | 1.3 ± 4.5%
4 | 29976-DC: Bach1 siNA duplex, target site 1585 (mouse); sense B cuGcucAAGcAAcuuGGAA TTB (SEQ 101); antisense UUCcAAGuuGcuuGAGcAGUU (SEQ 102) (sense CUGCUCAAGCAACUUGGAATT; antisense UUCCAAGUUGCUUGAGCAGUU; sense: DNA at AGT, 2'-fluoro at CU, [invAb] at 5' end, 3' end, backbone not given here; antisense: sugars from the 5' end rrrfmmmffmfffmmmfmmmm, backbone not given here) | 17.5 ± 1.7% | −1.2 ± 11.6%
5 | 29952-DC: Bach1 siNA duplex, target site 732; sense B cAuAuGAGuccAuGuGcuu TTB (SEQ 53); antisense AAGcAcAuGGAcucAuAuGUU (SEQ 54) (sense CAUAUGAGUCCAUGUGCUUTT; antisense AAGCACAUGGACUCAUAUGUU; sense: DNA at AGT, 2'-fluoro at CU, [invAb] at 5' end, 3' end, backbone not given here; antisense: sugars from the 5' end rrrfmfmfmmmfffmfmfmmm, backbone not given here) | 75 ± 0.9% | −15.7 ± 1.8%
6 | 29982-DC: Bach1 siNA duplex, target site 1752 (mouse); sense B cAuucAAuGcccAAcGGAu TTB (SEQ 113); antisense AUCcGuuGGGcAuuGAAuGUU (SEQ 114) (sense CAUUCAAUGCCCAACGGAUTT; antisense AUCCGUUGGGCAUUGAAUGUU; sense: DNA at AGT, 2'-fluoro at CU, [invAb] at 5' end, 3' end, backbone not given here; antisense: sugars from the 5' end rrrfmffmmmfmffmmmfmmm, backbone not given here) | −9.2 ± 4.6% | 9 ± 8.9%
7 | 29958-DC: Bach1 siNA duplex, target site 851; sense B GucAAAGAcAuucAuGcuu TTB (SEQ 65); antisense AAGcAuGAAuGucuuuGAcUU (SEQ 66) (sense GUCAAAGACAUUCAUGCUUTT; antisense AAGCAUGAAUGUCUUUGACUU; sense: DNA at AGT, 2'-fluoro at CU, [invAb] at 5' end, 3' end, backbone not given here; antisense: sugars from the 5' end rrrfmfmmmfmfffffmmfmm, backbone not given here) | 75.7 ± 8.6% | −50.4 ± 6.8%
8 | 29971-DC: Bach1 siNA duplex, target site 2488 (mouse); sense B GuAGcuuucuGuuGAGGGA TTB (SEQ 91); antisense UCCcucAAcAGAAAGcuAcUU (SEQ 92) (sense GUAGCUUUCUGUUGAGGGATT; antisense UCCCUCAACAGAAAGCUACUU; sense: sugars from the 5' end rfddffffffdffdddddddd, [invAb] at 5' end, 3' end, backbone not given here; antisense: sugars from the 5' end rrrfffmmfmmmmmmffmfmm, backbone not given here) | 23.9 ± 3.8% | 75 ± 4.7%
9 | 29968-DC: Bach1 siNA duplex, target site 671 (mouse); sense B GcAGAuGAAuucuuGGAAA TTB (SEQ 85); antisense UUUccAAGAAuucAucuGcUU (SEQ 86) (sense GCAGAUGAAUUCUUGGAAATT; antisense UUUCCAAGAAUUCAUCUGCUU; sense: DNA at AGT, 2'-fluoro at CU, [invAb] at 5' end, 3' end, backbone not given here; antisense: sugars from the 5' end rrrffmmmmmfffmfffmfmm, backbone not given here) | 28.2 ± 3.7% | 71 ± 8.7%
10 | 29949-DC: Bach1 siNA duplex, target site 664; sense B GuGuAAAcuccGcAGGuAu TTB (SEQ 47); antisense AUAccuGcGGAGuuuAcAcUU (SEQ 48) (sense GUGUAAACUCCGCAGGUAUTT; antisense AUACCUGCGGAGUUUACACUU; sense: DNA at AGT, 2'-fluoro at CU, [invAb] at 5' end, 3' end, backbone not given here; antisense: sugars from the 5' end rrrfffmfmmmmfffmfmfmm, backbone not given here) | 25 ± 1.4% | −7.1 ± 5.2%
11 | 29950-DC: Bach1 siNA duplex, target site 470; sense B GAGGAAuccuGcuuucAGu TTB (SEQ 49); antisense ACUGAAAGcAGGAuuccucUU (SEQ 50) (sense GAGGAAUCCUGCUUUCAGUTT; antisense ACUGAAAGCAGGAUUCCUCUU; sense: DNA at AGT, 2'-fluoro at CU, [invAb] at 5' end, 3' end, backbone not given here; antisense: sugars from the 5' end rrrmmmmmfmmmmffffffmm, backbone not given here) | 90.6 ± 1.7% | 42.5 ± 6.4%
12 | 29981-DC: Bach1 siNA duplex, target site 331 (mouse); sense B cAGcuAcuuccAcucGAGA TTB (SEQ 111); antisense UCUcGAGuGGAAGuAGcuGUU (SEQ 112) (sense CAGCUACUUCCACUCGAGATT; antisense UCUCGAGUGGAAGUAGCUGUU; sense: DNA at AGT, 2'-fluoro at CU, [invAb] at 5' end, 3' end, backbone not given here; antisense: sugars from the 5' end rrrfmmmfmmmmmfmmffmmm, backbone not given here) | 1 ± 0.9% | 3.5 ± 5%

— patent US20120016010A1, “RNA Interference Mediated Inhibition of BTB and CNC Homology 1, Basic Leucine Zipper Transcription Factor 1 (BACH1) Gene Expression Using Short Interfering Nucleic Acid (siNA)” (Merck Sharp & Dohme Corp, priority 2009, published 2012)
